Patent US20260183274A1, “PDK1 REGULATORY COMPOUND AND COMPOSITION CONTAINING THE SAME” (PROVIBIO CO., LTD., priority 2024, published 2026)
Like-named read-outs stand apart in the source and are kept apart here.

Tests used:
[1] = test system: T cells isolated from mouse spleens; assay: T cell proliferation inhibition (CFSE flow cytometry, anti-CD3/anti-CD28 stimulation); format: cell-based; settings: mouse spleen T cells, 3 days; for inhibition at 0.01 µM / inhibition at 0.1 µM / inhibition at 1 µM / inhibition at 10 µM / inhibition at 30 µM / inhibition at 50 µM: Mus musculus, T-cell, 72 h, read-out: Proliferation inhibition rate (%)
Summary of the method: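 Splenic T cells from 7-week-old C57BL/6 mice were MACS-isolated, CFSE-labelled, seeded at 2×10^5 cells/well and activated with anti-CD3/anti-CD28 (0.5 μg/mL each). Compound at 10 nM–50 μM (six levels, triplicate) was present for 3 days at 37 °C before flow cytometric readout of proliferation inhibition rate.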

[2] = test system: Human B Lymphocyte cell line, SU-DHL-8; assay: Relative cell viability CCK-8, SU-DHL-8; format: cell-based
Summary of the method: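 Cells grown in RPMI-1640 with 10% FBS, treated with compound at several concentrations, then given CCK-8 for 4 h at 37° C. Viability expressed as percent of DMSO-treated cells.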

[3] = test system: BALB/c mice with induced psoriasis; assay: Psoriasis animal model (Aldara cream, Imiquimod); format: in vivo, mouse
Procedure: To verify the therapeutic effect of the compound according to the present invention on psoriasis, a psoriasis animal model was established as follows, and the compound according to the present invention was administered to evaluate the alleviation of skin lesions and changes in immune cell patterns.
For the establishment of the psoriasis animal model, BALB/c mice (7 weeks old, female, 20 g) were purchased from HanabioTech Co., Ltd. and acclimatized to the rearing environment for one week.
Subsequently, the hair on the mouse back was shaved using a hair removal device for the first time, and then completely shaved using a depilatory cream (Nicrin Cream (80% thioglycolic acid, Il Dong Pharmaceutical)) for the second time. The mice were then kept for 24 hours to confirm the absence of skin damage.
[Normal control group (Normal, Not Treatment), psoriasis-induced control group (Psoriasis, Not Treatment), psoriasis-induced vehicle control group (Psoriasis, Vehicle), experimental group (GO85, GO86, GO88, GO89, PBK-2024-010, PBK-2024-026, PBK-2025-002, PBK-2025-004, PBK-2025-016, PBK-2025-017, PBK-2025-023)]. […]
Body weights of mice in each group were measured on days 1, 4, and 8 after the start of injection and psoriasis induction. […]
To evaluate the therapeutic effect in a psoriasis-induced mouse model, the PASI (Psoriasis Area and Severity Index) score was measured.
The PASI score is based on three criteria: erythema, scaling, and skin thickness, each scored from 0 (none) to 4 (severe). […]
Observations were conducted daily at the same time, and the same observer visually assessed each criterion and recorded the scores, with the results presented in FIG. 13. […]
All samples were measured in duplicate, and the absorbance was measured at 450 nm using a microplate reader.

[4] = Homo sapiens, SU-DHL-8, 48 h, read-out: Relative cell viability (%), SU-DHL-8, 1 μM, 48 hours, untreated (DMSO) = 100%
[5] = Homo sapiens, SU-DHL-8, 48 h, read-out: Relative cell viability (%), SU-DHL-8, 10 μM, 48 hours, untreated (DMSO) = 100%
[6] = 30 μM, 48 hours, untreated (DMSO) = 100%
[7] = 50 μM, 48 hours, untreated (DMSO) = 100%

## Nc1ncccc1C(=O)NCCCCCCCCCCCCN1CCOCC1 [Compound 2, 2-Amino-N-(12-morpholin-4-yl-dodecyl)-nicotinamide]
[1]; compound 10 nM
  inhibition at 0.01 µM: -1.47%
[1]; compound 100 nM
  inhibition at 0.1 µM: 0%
[1]; compound 1 μM
  inhibition at 1 µM: 0%
[1]; compound 10 μM
  inhibition at 10 µM: 100%
[1]; compound 30 μM
  inhibition at 30 µM: 100%
[1]; compound 50 μM
  inhibition at 50 µM: 100%
[2]; [4]
  viability at 1 µM: 31%
[2]; [5]
  viability at 10 µM: 26%
[2]; Homo sapiens, SU-DHL-8, 48 h, read-out: Relative cell viability (%), SU-DHL-8, 30 μM, 48 hours, untreated (DMSO) = 100%
  viability at 30 µM: 25.3%
[2]; Homo sapiens, SU-DHL-8, 48 h, read-out: Relative cell viability (%), SU-DHL-8, 50 μM, 48 hours, untreated (DMSO) = 100%
  viability at 50 µM: 24.7%

## Nc1ncccc1C(=O)NCCCCCCCCCCCCN1CCNCC1 [Compound 5, 2-Amino-N-(12-(piperazin-1-yl)dodecyl)-nicotinamide]
[1]; compound 100 nM
  inhibition at 0.1 µM: 100%
[1]; compound 1 μM
  inhibition at 1 µM: 100%
[1]; compound 10 μM
  inhibition at 10 µM: 100%
[1]; compound 30 μM
  inhibition at 30 µM: 100%
[1]; compound 50 μM
  inhibition at 50 µM: 100%
[1]; compound 10 nM, listed as GO78, 0.01 µM
  Proliferation inhibition rate (%): −27.49%
[2]; [4]
  viability at 1 µM: 8.8%
[2]; [5]
  viability at 10 µM: 5.87%
[2]; human, 48 h, 30 µM
  Relative cell viability (%), SU-DHL-8: 4.63%
[2]; human, 48 h, 50 µM
  Relative cell viability (%), SU-DHL-8: 3.67%

## CC1(C)CN(CCCCCCCCCCCCC(=O)Nc2nc(N)c3[nH]cnc3n2)CCO1 [Compound 11, 12-[4-(2,2-dimethylmorpholin-4-yl)]dodecyl-N-(6-aminopurine-2-yl) carboxamide]
[1]; compound 10 nM
  Proliferation inhibition rate (%): −25.47%
[1]; compound 100 nM
  Proliferation inhibition rate (%): 100.00%
[1]; compound 1 μM
  Proliferation inhibition rate (%): 100.00%
[1]; compound 10 μM
  Proliferation inhibition rate (%): 100.00%
[1]; compound 30 μM
  Proliferation inhibition rate (%): 100.00%
[1]; compound 50 μM
  Proliferation inhibition rate (%): 100.00%
[2]; 1 μM, 48 hours, untreated (DMSO) = 100%
  Relative cell viability (%), SU-DHL-8: 7.63%
[2]; 10 μM, 48 hours, untreated (DMSO) = 100%
  Relative cell viability (%), SU-DHL-8: 6.09%
[2]; [6]
  Relative cell viability (%), SU-DHL-8: 4.82%
[2]; [7]
  Relative cell viability (%), SU-DHL-8: 3.29%
[3]
  Efficacy in improving dermatological symptoms: excellent efficacy in improving dermatological symptoms

## Nc1ncccc1C(=O)NCCCCCCCCCCCCN1CCNCC1 [Compound 14, 2-Amino-N-(12-(piperazin-1-yl)dodecyl)nicotinamide]
[1]; compound 10 nM, listed as GO88, 0.01 µM
  Proliferation inhibition rate (%): 17.83%
[1]; compound 10 μM, listed as GO88, 10 µM
  Proliferation inhibition rate (%): 85.09%
[1]; compound 30 μM, listed as GO88, 30 µM
  Proliferation inhibition rate (%): 98.95%
[2]; human, 48 h, 1 µM
  Relative cell viability (%), SU-DHL-8: 9.28%
[2]; human, 48 h, 10 µM
  Relative cell viability (%), SU-DHL-8: 3.31%
[2]; human, 48 h, 30 µM
  Relative cell viability (%), SU-DHL-8: 1.16%
[2]; human, 48 h, 50 µM
  Relative cell viability (%), SU-DHL-8: 0.32%
[3]
  Efficacy in improving dermatological symptoms: excellent efficacy in improving dermatological symptoms

## Nc1nc(NC(=O)CCCCCCCCCCCCN2CCN(CCO)CC2)nc2nc[nH]c12 [Compound 15, 12-[4-(2-hydroxyethyl)piperazin-1-yl]dodecyl-N-(6-aminopurine-2-yl) carboxamide]
[1]; compound 10 nM
  inhibition at 0.01 µM: -0.4%
[1]; compound 100 nM
  inhibition at 0.1 µM: 100%
[1]; compound 1 μM
  inhibition at 1 µM: 100%
[1]; compound 10 μM
  inhibition at 10 µM: 100%
[1]; compound 30 μM
  inhibition at 30 µM: 100%
[1]; compound 50 μM
  inhibition at 50 µM: 100%
[3]
  Efficacy in improving dermatological symptoms: excellent efficacy in improving dermatological symptoms

## Nc1ncccc1C(=O)NCCCCCCCCCCCCF [Compound 57, 2-Amino-N-(12-fluoro-dodecyl)-nicotinamide]
[1]; compound 30 μM
  inhibition at 30 µM: 100%
[1]; compound 50 μM
  inhibition at 50 µM: 100%
[1]; compound 10 nM
  Proliferation inhibition rate (%): −9.32%
[1]; compound 100 nM
  Proliferation inhibition rate (%): −5.28%
[1]; compound 1 μM
  Proliferation inhibition rate (%): 16.20%
[2]; [6]
  Relative cell viability (%), SU-DHL-8: 15.63%
[2]; [7]
  Relative cell viability (%), SU-DHL-8: 11.94%
[2]; Homo sapiens, SU-DHL-8, 48 h, 1 μM, 48 hours, untreated (DMSO) = 100%, read-out: Relative cell viability (%), SU-DHL-8
  viability at 1 µM: 19%
[2]; Homo sapiens, SU-DHL-8, 48 h, 10 μM, 48 hours, untreated (DMSO) = 100%, read-out: Relative cell viability (%), SU-DHL-8
  viability at 10 µM: 18.8%
